Data taken from patent US11046699B2, “Pyrazolo-pyrimidin-amino-cycloalkyl compounds and their therapeutic uses” (RAPT THERAPEUTICS, INC., priority 2018, dated 2021).
Read-outs that look alike come from different tables or passages of the source.

Biological target: GCN2 (Homo sapiens, UniProt Q9P2K8)
Assay: GCN2 enzymatic endpoint assay: phosphorylation of GFP-eIF2α measured by TR-FRET (Lanthascreen)
Assay type: biochemical
Summary of the method: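 2 μM ATP, 80 nM GFP-eIF2α, RT, 90 min; EDTA stop. Tb-anti-phospho antibody TR-FRET read, 520/495 nm ratio.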

[1] = tested as described in Example 77, compound and/or hydrochloride, dihydrochloride or trifluoroacetic acid salt, read-out: IC 50 Activity
[2] = GCN2 biochemical IC50, 4 nM GCN2, 2 μM ATP, 80 nM GFP-eIF2α, 90 min RT, read-out: GCN2 activity

Chain of GCN2 (Q9P2K8 whole entry): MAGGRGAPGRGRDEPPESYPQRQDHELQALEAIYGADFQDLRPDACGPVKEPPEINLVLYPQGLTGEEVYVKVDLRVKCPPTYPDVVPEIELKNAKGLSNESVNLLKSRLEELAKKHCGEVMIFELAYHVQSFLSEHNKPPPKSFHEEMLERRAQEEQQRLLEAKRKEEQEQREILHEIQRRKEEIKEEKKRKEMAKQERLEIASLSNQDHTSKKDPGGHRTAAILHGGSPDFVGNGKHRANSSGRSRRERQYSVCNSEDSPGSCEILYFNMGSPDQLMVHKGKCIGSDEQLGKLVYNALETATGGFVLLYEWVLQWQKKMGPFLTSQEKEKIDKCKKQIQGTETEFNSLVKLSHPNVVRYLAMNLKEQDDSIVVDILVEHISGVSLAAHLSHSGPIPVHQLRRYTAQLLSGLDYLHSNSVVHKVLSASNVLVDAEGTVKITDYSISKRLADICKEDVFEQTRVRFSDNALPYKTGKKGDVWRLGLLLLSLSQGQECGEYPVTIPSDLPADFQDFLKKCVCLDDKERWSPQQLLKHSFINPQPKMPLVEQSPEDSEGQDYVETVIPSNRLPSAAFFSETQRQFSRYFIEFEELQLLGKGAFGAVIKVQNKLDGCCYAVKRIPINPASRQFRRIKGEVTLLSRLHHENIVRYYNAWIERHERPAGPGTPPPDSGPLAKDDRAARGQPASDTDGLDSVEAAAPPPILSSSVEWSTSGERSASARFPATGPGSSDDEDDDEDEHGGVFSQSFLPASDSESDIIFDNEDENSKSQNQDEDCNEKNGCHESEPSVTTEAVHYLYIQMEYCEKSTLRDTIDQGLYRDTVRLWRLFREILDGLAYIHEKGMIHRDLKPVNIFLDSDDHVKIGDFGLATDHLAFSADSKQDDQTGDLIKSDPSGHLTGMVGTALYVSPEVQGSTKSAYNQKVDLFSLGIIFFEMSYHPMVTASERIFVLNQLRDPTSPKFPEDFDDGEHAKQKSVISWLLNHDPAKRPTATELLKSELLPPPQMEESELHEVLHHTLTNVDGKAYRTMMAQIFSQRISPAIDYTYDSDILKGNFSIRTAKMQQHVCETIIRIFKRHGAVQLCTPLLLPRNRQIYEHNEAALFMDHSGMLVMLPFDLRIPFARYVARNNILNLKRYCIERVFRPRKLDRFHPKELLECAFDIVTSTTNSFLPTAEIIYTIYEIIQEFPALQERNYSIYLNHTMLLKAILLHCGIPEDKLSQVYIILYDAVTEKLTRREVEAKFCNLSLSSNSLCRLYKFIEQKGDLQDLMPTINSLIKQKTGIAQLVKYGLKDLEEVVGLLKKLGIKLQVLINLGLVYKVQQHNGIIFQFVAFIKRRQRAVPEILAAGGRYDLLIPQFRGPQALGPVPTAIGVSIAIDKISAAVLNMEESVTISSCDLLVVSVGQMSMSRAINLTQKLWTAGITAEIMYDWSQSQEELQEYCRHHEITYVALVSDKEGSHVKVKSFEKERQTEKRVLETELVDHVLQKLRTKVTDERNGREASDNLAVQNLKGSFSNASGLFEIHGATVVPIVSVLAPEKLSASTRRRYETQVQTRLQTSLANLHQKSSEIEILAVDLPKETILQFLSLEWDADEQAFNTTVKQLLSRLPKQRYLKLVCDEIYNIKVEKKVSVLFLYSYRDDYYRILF

Structure (SMILES) | IC50 [1] | IC50 [2]
CP(C)(=O)[C@@H]1CC[C@@H](Nc2ncc3c(Br)nn(-c4cc(C5CCNC5)c5ncccc5c4)c3n2)C1 (stereo partly drawn) [3-bromo-N-[(1R,3R)-3-dimethylphosphoryl-cyclopentyl]-1-(8-pyrrolidin-3-yl-6-quinolyl) pyrazolo[3,4-d]pyrimidin-6-amine] | 25 to 200 nM | 
CNC(=O)[C@]1(C)CC[C@@H](Nc2ncc3c(Br)nn(-c4ccc(-c5nnc(C)s5)c(CC(O)C(F)(F)F)c4)c3n2)C1 (stereo partly drawn) [(1R,3R)-3-[[3-bromo-1-[4-(5-methyl-1,3,4-thiadiazol-2-yl)-3-(3,3,3-trifluoro-2-hydroxy-propyl)phenyl]pyrazolo[3,4-d]pyrimidin-6-yl]amino]-N,1-dimethyl-cyclopentane-carboxamide] | 25 to 200 nM | 
CN(C)CCNC(=O)[C@@H]1CC[C@@H](Nc2ncc3c(Br)nn(-c4ccc5ncccc5c4)c3n2)C1 [(1R,3R)-3-((3-bromo-1-(quinolin-6-yl)-1H-pyrazolo[3,4-d]pyrimidin-6-yl)amino)-N-(2-(dimethylamino)ethyl)cyclopentane-1-carboxamide] | 25 to 200 nM | 
CCNC(=O)[C@@H]1CC[C@@H](Nc2ncc3c(Br)nn(-c4cc(F)c5ncccc5c4)c3n2)C1 [(1R,3R)-3-[[3-bromo-1-(8-fluoro-6-quinolyl)pyrazolo[3,4-d]pyrimidin-6-yl]amino]-N-ethyl-cyclopentanecarboxamide] | 25 to 200 nM | 
CNC(=O)[C@]1(C)CC[C@@H](Nc2ncc3c(Br)nn(-c4ccc5nccc(=O)n5c4)c3n2)C1 [(1R,3R)-3-[[3-bromo-1-(4-oxopyrido [1,2-a]pyrimidin-7-yl)pyrazolo[3,4-d]pyrimidin-6-yl]amino]-N,1-dimethyl-cyclopentanecarboxamide] | 25 to 200 nM | 
N#CC1CN(C(=O)[C@@H]2CC[C@@H](Nc3ncc4c(Br)nn(-c5cc(F)c6ncccc6c5)c4n3)C2)C1 [1-[(1R,3R)-3-[[3-bromo-1-(8-fluoro-6-quinolyl)pyrazolo[3,4-d]pyrimidin-6-yl]amino]cyclopentanecarbonyl]azetidine-3-carbonitrile] | < 25 nM | 
CNC(=O)[C@]1(C)CCC(Nc2ncc3c(Br)nn(-c4cc(F)cc(C5COC5)c4)c3n2)C1 (stereo partly drawn) [(1R)-3-[[3-bromo-1-[3-fluoro-5-(oxetan-3-yl)phenyl]pyrazolo[3,4-d]pyrimidin-6-yl]amino]-N,1-dimethyl-cyclopentane-carboxamide] | 25 to 200 nM | 
CNC(=O)[C@]1(C(C)C)CC[C@@H](Nc2ncc3c(Br)nn(-c4ccc(-c5nnc(C)s5)c(CCC#N)c4)c3n2)C1 [(1R,3R)-3-[[3-bromo-1-[3-(2-cyanoethyl)-4-(5-methyl-1,3,4-thiadiazol-2-yl)phenyl]pyrazolo[3,4-d]pyrimidin-6-yl]amino]-1-isopropyl-N-methyl-cyclopentane-carboxamide] | 25 to 200 nM | 
CCNC(=O)[C@]1(C)CC[C@@H](Nc2ncc3c(Br)nn(-c4cc(F)c5ncccc5c4)c3n2)C1 [(1R,3R)-3-[[3-bromo-1-(8-fluoro-6-quinolyl)pyrazolo[3,4-d]pyrimidin-6-yl]amino]-N-ethyl-1-methyl-cyclopentanecarboxamide] | < 25 nM | 
CNC(=O)[C@]1(C)CC[C@@H](Nc2ncc3c(Br)nn(-c4cc(C#N)cc(OCC5(F)CNC5)c4)c3n2)C1 [Example 36, (1R,3R)-3-((3-bromo-1-(3-cyano-5-((3-fluoroazetidin-3-yl)methoxy)phenyl)-1H-pyrazolo[3,4-d]pyrimidin-6-yl)amino)-N,1-dimethylcyclopentane-1-carboxamide; 2,2,2-trifluoroacetic acid] |  | < 25 nM
Cc1nnc(-c2ccc(-n3nc(Br)c4cnc(N[C@@H]5CC[C@@H](NC(=O)[C@H]6CCCCN6)C5)nc43)cc2)s1 | 25 to 200 nM | 
CNC(=O)[C@]1(C)CC[C@@H](Nc2ncc3c(Br)nn(-c4ccc5nc(N6CCN(C(C)=O)CC6)ncc5c4)c3n2)C1 | 25 to 200 nM | 
CNC(=O)C1(C)CC[C@@H](Nc2ncc3c(Br)nn(-c4ccc(-c5cnccn5)cc4)c3n2)C1 (stereo partly drawn) [(3R)-3-[[3-bromo-1-(4-pyrazin-2-ylphenyl)pyrazolo[3,4-d]pyrimidin-6-yl]amino]-N,1-dimethyl-cyclopentanecarboxamide] | 25 to 200 nM | 
CNC(=O)[C@]1(C)CC[C@@H](Nc2ncc3c(Br)nn(-c4ccc5c(c4)CN(S(=O)(=O)CC(F)F)C5)c3n2)C1 [(1R,3R)-3-[[3-bromo-1-[2-(2,2-difluoroethylsulfonyl)isoindolin-5-yl]pyrazolo[3,4-d]pyrimidin-6-yl]amino]-N,1-dimethyl-cyclopentanecarboxamide] | 25 to 200 nM | 
CNC(=O)[C@]1(C)CC[C@@H](Nc2ncc3c(Br)nn(-c4cc(Cl)cc(C5COC(=O)N5C)c4)c3n2)C1 (stereo partly drawn) [(1R,3R)-3-[[3-bromo-1-[3-chloro-5-(3-methyl-2-oxo-oxazolidin-4-yl)phenyl]pyrazolo[3,4-d]pyrimidin-6-yl]amino]-N,1-dimethyl-cyclopentanecarboxamide] | 25 to 200 nM | 
CNC(=O)[C@]1(CC(F)F)CC[C@@H](Nc2ncc3c(Br)nn(-c4ccc(-c5nnc(C)s5)c(CCC#N)c4)c3n2)C1 [Example 53, (1R,3R)-3-((3-bromo-1-(3-(2-cyanoethyl)-4-(5-methyl-1,3,4-thiadiazol-2-yl)phenyl)-1H-pyrazolo[3,4-d]pyrimidin-6-yl)amino)-1-(2,2-difluoroethyl)-N-methylcyclopentane-1-carboxamide; 2,2,2-trifluoroacetic acid] |  | 25 to 200 nM

Structure (SMILES) | IC50 [1] | IC50 [2]
CNC(=O)[C@]1(C)CC[C@@H](Nc2ncc3c(Br)nn(-c4cc(CO)c5nccnc5c4)c3n2)C1 [(1R,3R)-3-[[3-bromo-1-[8-(hydroxymethyl)quinoxalin-6-yl]pyrazolo[3,4-d]pyrimidin-6-yl]amino]-N,1-dimethyl-cyclopentane-carboxamide] | 25 to 200 nM | 
O=C(N[C@@H]1CCOC1)[C@@H]1CC[C@@H](Nc2ncc3c(Br)nn(-c4cc(F)c5ncccc5c4)c3n2)C1 [(1R,3R)-3-((3-bromo-1-(8-fluoroquinolin-6-yl)-1H-pyrazolo[3,4-d]pyrimidin-6-yl)amino)-N-((R)-tetrahydrofuran-3-yl)cyclopentane-1-carboxamide] | < 25 nM | 
CNC(=O)[C@]1(CO)CC[C@@H](Nc2ncc3c(Br)nn(-c4ccc(-c5nnc(C)s5)c(CCC#N)c4)c3n2)C1 [(1R,3R)-3-[[3-bromo-1-[3-(2-cyanoethyl)-4-(5-methyl-1,3,4-thiadiazol-2-yl)phenyl]pyrazolo[3,4-d]pyrimidin-6-yl]amino]-1-(hydroxymethyl)-N-methyl-cyclopentane-carboxamide] | 25 to 200 nM | 
O=C(N[C@H]1CCOC1)[C@@H]1CC[C@@H](Nc2ncc3c(Br)nn(-c4ccc5ncccc5c4)c3n2)C1 [(1R,3R)-3-((3-bromo-1-(quinolin-6-yl)-1H-pyrazolo[3,4-d]pyrimidin-6-yl)amino)-N-((S)-tetrahydrofuran-3-yl)cyclopentane-1-carboxamide] | 25 to 200 nM | 
CNC(=O)[C@]1(C)CC[C@@H](Nc2ncc3c(Br)nn(-c4ccc(-c5nnc(C)o5)nc4)c3n2)C1 [(1R,3R)-3-[[3-bromo-1-[6-(5-methyl-1,3,4-oxadiazol-2-yl)-3-pyridyl]pyrazolo [3,4-d]pyrimidin-6-yl]amino]-N,1-dimethyl-cyclopentanecarboxamide] | 25 to 200 nM | 
CS(=O)(=O)N1CC[C@@H](Nc2ncc3c(Br)nn(-c4ccc5ncccc5c4)c3n2)C1 [(R)-3-bromo-N-(1-(methylsulfonyl)pyrrolidin-3-yl)-1-(quinolin-6-yl)-1H-pyrazolo[3,4-d] pyrimidin-6-amine] | 200 to 500 nM | 
Cc1nnc(-c2ccc(-n3nc(Br)c4cnc(N[C@@H]5CCC(S(=O)(=O)NCCC#N)C5)nc43)cc2)s1 (stereo partly shown) | 25 to 200 nM | 
C[C@@H]1CN(C(=O)[C@@H]2CC[C@@H](Nc3ncc4c(Br)nn(-c5ccc6ncccc6c5)c4n3)C2)C[C@H](C)O1 [((1R,3R)-3-((3-bromo-1-(quinolin-6-yl)-1H-pyrazolo[3,4-d]pyrimidin-6-yl)amino)cyclopentyl)((2S,6R)-2,6-dimethylmorpholino) methanone] | 200 to 500 nM | 
CNC(=O)[C@]1(C)CC[C@@H](Nc2ncc3c(Br)nn(-c4ccc(-c5nnc(C)s5)c(F)c4)c3n2)C1 | < 25 nM | 
CNC(=O)[C@]1(C)CC[C@@H](Nc2ncc3c(Br)nn(-c4ccc(-n5ccnc5)cc4)c3n2)C1 [(1R,3R)-3-[[3-bromo-1-(4-imidazol-1-ylphenyl)pyrazolo[3,4-d]pyrimidin-6-yl]amino]-N,1-dimethyl-cyclo-pentanecarboxamide] | 25 to 200 nM | 
CNC(=O)C1(C)CC[C@@H](Nc2ncc3c(Br)nn(-c4cc(CO)cc(OC)c4)c3n2)C1 (stereo partly drawn) [(3R)-3-[[3-bromo-1-[3-(hydroxymethyl)-5-methoxy-phenyl]pyrazolo[3,4-d]pyrimidin-6-yl]amino]-N,1-dimethyl-cyclopentanecarboxamide] | 25 to 200 nM | 
CNC(=O)[C@]1(C)CC[C@@H](Nc2ncc3c(Br)nn(-c4cc(Cl)cc(C#N)c4)c3n2)C1 [(1R,3R)-3-[[3-bromo-1-(3-chloro-5-cyano-phenyl)pyrazolo[3,4-d]pyrimidin-6-yl]amino]-N,1-dimethyl-cyclopentanecarboxamide] | 25 to 200 nM | 
CNC(=O)[C@]1(C)CC[C@@H](Nc2ncc3c(Br)nn(-c4ccc(-c5nnc(C)[nH]5)cc4)c3n2)C1 [(1R,3R)-3-[[3-bromo-1-[4-(5-methyl-4H-1,2,4-triazol-3-yl)phenyl]pyrazolo[3,4-d]pyrimidin-6-yl]amino]-N,1-dimethyl-cyclopentanecarboxamide] | 25 to 200 nM | 
CNC(=O)[C@@H]1CC[C@@H](Nc2ncc3c(Br)nn(-c4cc(C#N)c5ncccc5c4)c3n2)C1 [(1R,3R)-3-((3-bromo-1-(8-cyanoquinolin-6-yl)-1H-pyrazolo[3,4-d]pyrimidin-6-yl)amino)-N-methylcyclopentane-1-carboxamide] | < 25 nM | 
CNC(=O)[C@]1(C)CC[C@@H](Nc2ncc3c(Br)nn(-c4cc(Cl)cc(OCC5(F)CNC5)c4)c3n2)C1 [(1R,3R)-3-[[3-bromo-1-[3-chloro-5-[(3-fluoroazetidin-3-yl)methoxy]phenyl]pyrazolo[3,4-d]pyrimidin-6-yl]amino]-N,1-dimethyl-cyclopentanecarboxamide] | < 25 nM | 
